For 19 compounds, TGI results are on record in PubChem BioAssay (NCI).

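Growth conditions: 96-well plates. Treatment: test compound, 48 hours, 5 concentrations. Analysis: linear interpolation between bracketing concentrations; unreached endpoints set to highest concentration. At the TGI there is no net growth.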 Where only a bound is given, the exact number is not on record here.

The first assay deals with UO-31 renal. As to the kind of experiment: growth of human tumour cells (NCI), 48 h.
In the case of `O=C1C/C(=C/c2ccc(/C=C3/CC(=O)N(c4cccc(Br)c4)C3=O)cc2)C(=O)N1c1cccc(Br)c1`, the TGI is greater than 100 µM.

The compound `CCOC(C[C@H](O)[C@H]1COC(=S)S1)OCC` showed a TGI greater than 100 µM.

`O=C(c1ccc(Cl)cc1Cl)N(C(=O)N1CCC(c2ccccc2)CC1)c1ccccc1`: the TGI is greater than 100 µM.

In turn, `CCCCCCn1c(SCC)c2ccccc2c1-c1nc(F)nc(F)n1` displayed a TGI greater than 100 µM.

On to `CN(C(=O)C12C3C4C1C1C2C3C41I)C(C)(C)C` (stereo not drawn), for which the TGI was greater than 100 µM.

`Cn1c(O)c(C(=O)Nc2cccs2)c(=O)[nH]c1=S` displayed a TGI of 34.1 µM.

On to `CC(=O)/C(=C\c1ccco1)C(=O)Nc1ccccc1`, for which the TGI is greater than 100 µM.

For the compound `NCC1(N2CCOCC2)C2CCCC21CO` (stereo not drawn), the TGI is greater than 100 µM.

Regarding `CC#COP(=O)(OCC)OCC`, the TGI was greater than 100 µM.

Regarding `C=CCONC(=O)c1ccc(Cl)cc1`, the TGI was greater than 100 µM.

On to `O=C(CC1Sc2ccccc2NC1=O)Nc1cc(Cl)ccc1Cl` (stereo not drawn), for which the TGI was greater than 100 µM.

`COc1cc(/C=C/C(=O)c2sc(-n3nc(-c4ccccc4)cc3-c3ccccc3)nc2C)ccc1O` came in with a TGI greater than 100 µM.

`O=C(CCn1[nH]c(=O)c(Cl)c(Cl)c1=O)NOCCCc1ccccc1` returned a TGI greater than 100 µM.

Compound `CC(C)=CCCC1(C)C=Cc2c(c(C)cc3c2[nH]c2cc(O)ccc23)O1` (stereo not drawn) came in with a TGI greater than 25 µM.

With `COc1cc(NC(C)=O)c2[nH]c3c(C)cc(NC(C)=O)c(C)c3c2c1`, the TGI is greater than 100 µM.

Take `COc1cc(/C=C\c2ccccn2)cc(OC)c1OC`: the TGI was greater than 100 µM.

`O=P(O)(OCC(O)O)OCC(O)O` showed a TGI greater than 100 µM.

For `CCOC(=O)CSc1ccnc(=O)[nH]1`, the TGI is greater than 100 µM.

`c1ccc(Nc2nnc(CSc3nc(-c4ccccc4)c(-c4ccccc4)[nH]3)s2)cc1`: the TGI was determined as 34.7 µM.

The next assay has as its system EKVX NSCLC. In words: growth of human tumour cells (NCI), 48 h.
`O=C1C/C(=C/c2ccc(/C=C3/CC(=O)N(c4cccc(Br)c4)C3=O)cc2)C(=O)N1c1cccc(Br)c1` showed a TGI greater than 100 µM.

The compound `CCOC(C[C@H](O)[C@H]1COC(=S)S1)OCC` had a TGI greater than 100 µM.

With `O=C(c1ccc(Cl)cc1Cl)N(C(=O)N1CCC(c2ccccc2)CC1)c1ccccc1`, the TGI is greater than 100 µM.

For the compound `CCCCCCn1c(SCC)c2ccccc2c1-c1nc(F)nc(F)n1`, the TGI is greater than 100 µM.

Regarding `CN(C(=O)C12C3C4C1C1C2C3C41I)C(C)(C)C` (stereo not drawn), the TGI was greater than 100 µM.

`CC(=O)/C(=C\c1ccco1)C(=O)Nc1ccccc1`: the TGI is greater than 100 µM.

In turn, `CC#COP(=O)(OCC)OCC` showed a TGI greater than 100 µM.

`C=CCONC(=O)c1ccc(Cl)cc1` had a TGI greater than 100 µM.

Take `O=C(CC1Sc2ccccc2NC1=O)Nc1cc(Cl)ccc1Cl` (stereo not drawn): the TGI was greater than 100 µM.

In turn, `COc1cc(/C=C/C(=O)c2sc(-n3nc(-c4ccccc4)cc3-c3ccccc3)nc2C)ccc1O` gave a TGI greater than 100 µM.

For the compound `O=C(CCn1[nH]c(=O)c(Cl)c(Cl)c1=O)NOCCCc1ccccc1`, the TGI is greater than 100 µM.

On to `COc1cc(NC(C)=O)c2[nH]c3c(C)cc(NC(C)=O)c(C)c3c2c1`, for which the TGI is greater than 100 µM.

In turn, `COc1cc(/C=C\c2ccccn2)cc(OC)c1OC` registered a TGI greater than 100 µM.

In turn, `O=P(O)(OCC(O)O)OCC(O)O` yielded a TGI greater than 100 µM.

`CCOC(=O)CSc1ccnc(=O)[nH]1` came in with a TGI greater than 100 µM.

Regarding `c1ccc(Nc2nnc(CSc3nc(-c4ccccc4)c(-c4ccccc4)[nH]3)s2)cc1`, the TGI was 51.5 µM.

In another assay the test system is HCT-15 colon. As to the kind of experiment: growth of human tumour cells (NCI), 48 h.
With `O=C1C/C(=C/c2ccc(/C=C3/CC(=O)N(c4cccc(Br)c4)C3=O)cc2)C(=O)N1c1cccc(Br)c1`, the TGI was greater than 100 µM.

The compound `CCOC(C[C@H](O)[C@H]1COC(=S)S1)OCC` displayed a TGI greater than 100 µM.

Take `O=C(c1ccc(Cl)cc1Cl)N(C(=O)N1CCC(c2ccccc2)CC1)c1ccccc1`: the TGI was greater than 100 µM.

On to `CCCCCCn1c(SCC)c2ccccc2c1-c1nc(F)nc(F)n1`, for which the TGI is greater than 100 µM.

`CN(C(=O)C12C3C4C1C1C2C3C41I)C(C)(C)C` (stereo not drawn) returned a TGI greater than 100 µM.

Consider `Cn1c(O)c(C(=O)Nc2cccs2)c(=O)[nH]c1=S`, for which the TGI came out at 43 µM.

The compound `CC(=O)/C(=C\c1ccco1)C(=O)Nc1ccccc1` displayed a TGI greater than 100 µM.

For the compound `NCC1(N2CCOCC2)C2CCCC21CO` (stereo not drawn), the TGI is greater than 100 µM.

`CC#COP(=O)(OCC)OCC` showed a TGI greater than 100 µM.

Compound `C=CCONC(=O)c1ccc(Cl)cc1` came in with a TGI greater than 100 µM.

With `O=C(CC1Sc2ccccc2NC1=O)Nc1cc(Cl)ccc1Cl` (stereo not drawn), the TGI is greater than 100 µM.

Turning to `COc1cc(/C=C/C(=O)c2sc(-n3nc(-c4ccccc4)cc3-c3ccccc3)nc2C)ccc1O`, the TGI was greater than 100 µM.

Take `O=C(CCn1[nH]c(=O)c(Cl)c(Cl)c1=O)NOCCCc1ccccc1`: the TGI is greater than 100 µM.

`CC(C)=CCCC1(C)C=Cc2c(c(C)cc3c2[nH]c2cc(O)ccc23)O1` (stereo not drawn) had a TGI greater than 25 µM.

Compound `COc1cc(NC(C)=O)c2[nH]c3c(C)cc(NC(C)=O)c(C)c3c2c1` gave a TGI greater than 100 µM.

`COc1cc(/C=C\c2ccccn2)cc(OC)c1OC` yielded a TGI greater than 100 µM.

Turning to `CCOC(=O)CSc1ccnc(=O)[nH]1`, the TGI was greater than 100 µM.

As to `c1ccc(Nc2nnc(CSc3nc(-c4ccccc4)c(-c4ccccc4)[nH]3)s2)cc1`, the TGI is 49.9 µM.

The next assay relates to HT29 colon. In words: growth of human tumour cells (NCI), 48 h.
`O=C1C/C(=C/c2ccc(/C=C3/CC(=O)N(c4cccc(Br)c4)C3=O)cc2)C(=O)N1c1cccc(Br)c1` came in with a TGI greater than 100 µM.

For `CCOC(C[C@H](O)[C@H]1COC(=S)S1)OCC`, the TGI was greater than 100 µM.

The compound `O=C(c1ccc(Cl)cc1Cl)N(C(=O)N1CCC(c2ccccc2)CC1)c1ccccc1` had a TGI greater than 100 µM.

`CCCCCCn1c(SCC)c2ccccc2c1-c1nc(F)nc(F)n1` yielded a TGI greater than 100 µM.

Compound `CN(C(=O)C12C3C4C1C1C2C3C41I)C(C)(C)C` (stereo not drawn) showed a TGI greater than 100 µM.

With `Cn1c(O)c(C(=O)Nc2cccs2)c(=O)[nH]c1=S`, the TGI was found to be 34 µM.

For `CC(=O)/C(=C\c1ccco1)C(=O)Nc1ccccc1`, the TGI was greater than 100 µM.

As to `NCC1(N2CCOCC2)C2CCCC21CO` (stereo not drawn), the TGI was greater than 100 µM.

For `CC#COP(=O)(OCC)OCC`, the TGI was greater than 100 µM.

`C=CCONC(=O)c1ccc(Cl)cc1` had a TGI greater than 100 µM.

For the compound `O=C(CC1Sc2ccccc2NC1=O)Nc1cc(Cl)ccc1Cl` (stereo not drawn), the TGI was greater than 100 µM.

`O=C(CCn1[nH]c(=O)c(Cl)c(Cl)c1=O)NOCCCc1ccccc1`: the TGI is greater than 100 µM.

Take `CC(C)=CCCC1(C)C=Cc2c(c(C)cc3c2[nH]c2cc(O)ccc23)O1` (stereo not drawn): the TGI is greater than 25 µM.

As for `COc1cc(NC(C)=O)c2[nH]c3c(C)cc(NC(C)=O)c(C)c3c2c1`, the TGI was greater than 100 µM.

For `COc1cc(/C=C\c2ccccn2)cc(OC)c1OC`, the TGI was greater than 100 µM.
